{"source": "paper PMC11644518", "about": "(Plants, 2024)", "note": "Several values for one entry are separate records, joined by “and”; a condition that tells them apart may be missing. Equal values may be shown once.", "data": [{"target": "T1, SARS-CoV PLpro (Severe acute respiratory syndrome coronavirus, UniProt P0C6X7)", "assay": "biochemical", "settings": "not given", "units": {"fold lower potency than 7": "fold", "fold higher inhibition than demethoxylated analog 1": "fold"}, "values": [{"compound": "CC(C)=CCC[C@@]1(C)C=Cc2c(ccc(C(=O)/C=C/c3ccc(O)cc3)c2O)O1", "note": "(racemic) [Compound 8, (±)-lespeol]", "fold lower potency than 7": 8}, {"compound": "COc1c(CC=C(C)C)c(O)cc2c1[C@@H]1Oc3c(ccc(O)c3CC=C(C)C)[C@@H]1CO2", "note": "[Compound 3, 1-methoxyerythrabyssin II]", "fold higher inhibition than demethoxylated analog 1": 2}]}, {"target": "T1, SARS-CoV PLpro", "assay": "biochemical", "settings": "IC50 Value, SARS-CoV PLpro inhibitory activity", "values": [{"compound": "CC(C)=CCC[C@@]1(C)C=Cc2c(ccc(C(=O)/C=C/c3ccc(O)cc3)c2O)O1", "note": "(racemic) [Compound 8, (±)-lespeol]", "IC50": "50.1 ± 4.2 µM"}, {"compound": "CC(C)=CCc1cc2c(cc1O)OCC1c3cc(C)c(O)c(CC=C(C)C)c3OC21", "note": "(stereo not shown) [Compound 2, lespebuergine G4]", "IC50": "33 µM and 32.9 µM"}, {"compound": "COc1c(CC=C(C)C)c(O)cc2c1[C@@H]1Oc3c(ccc(O)c3CC=C(C)C)[C@@H]1CO2", "note": "[Compound 3, 1-methoxyerythrabyssin II]", "IC50": "11.2 µM"}, {"compound": "COc1c(CC=C(C)C)c(O)cc2c1[C@@H]1Oc3c(cc(C)c(O)c3CC=C(C)C)[C@@H]1CO2", "note": "[Compound 4, bicolosin A]", "IC50": "43.3 µM and 43.2 µM"}, {"compound": "CC(C)=CCC/C(C)=C/Cc1cc2c(cc1O)OC[C@H]1c3cc(C)c(O)c(CC=C(C)C)c3O[C@@H]21", "note": "[Compound 5, bicolosin B]", "IC50": "217 ± 7.6 µM"}, {"compound": "COc1cc(O)c(C/C=C(\\C)CCC=C(C)C)c2c1[C@@H]1Oc3cc(O)ccc3[C@@H]1CO2", "note": "[Compound 6, bicolosin C]", "IC50": "9.3 ± 3.1 µM"}, {"compound": "CC(C)=CCC/C(C)=C/Cc1c(O)ccc(C(=O)/C=C/c2ccc(O)cc2)c1O", "note": "[Compound 7, xanthoangelol]", "IC50": "6.3 ± 1.5 µM"}, {"compound": "COc1c(O)ccc(C2COc3cc(O)cc(O)c3C2=O)c1OC", "note": "(stereo not shown) [Compound 9, parvisoflavanone]", "IC50": "104 ± 6.1 µM"}]}, {"target": "T1, SARS-CoV PLpro", "assay": "biochemical", "settings": "not given", "remark": "another data set of the same source", "values": [{"compound": "CC(C)=CCC[C@@]1(C)C=Cc2c(ccc(C(=O)/C=C/c3ccc(O)cc3)c2O)O1", "note": "(racemic) [Compound 8, (±)-lespeol]", "Inhibition Mode": "Noncompetitive (54.0 ± 4.5)"}, {"compound": "CC(C)=CCc1cc2c(cc1O)OC[C@H]1c3ccc(O)c(CC=C(C)C)c3O[C@@H]21", "note": "[Compound 1, erythrabyssin II]", "Inhibition Mode": "Noncompetitive (17.0 ± 3.1)"}, {"compound": "CC(C)=CCc1cc2c(cc1O)OCC1c3cc(C)c(O)c(CC=C(C)C)c3OC21", "note": "(stereo not shown) [Compound 2, lespebuergine G4]", "Inhibition Mode": "Noncompetitive (33.2 ± 1.7)"}, {"compound": "COc1c(CC=C(C)C)c(O)cc2c1[C@@H]1Oc3c(ccc(O)c3CC=C(C)C)[C@@H]1CO2", "note": "[Compound 3, 1-methoxyerythrabyssin II]", "Inhibition Mode": "Noncompetitive (8.6 ± 1.1)"}, {"compound": "COc1c(CC=C(C)C)c(O)cc2c1[C@@H]1Oc3c(cc(C)c(O)c3CC=C(C)C)[C@@H]1CO2", "note": "[Compound 4, bicolosin A]", "Inhibition Mode": "Noncompetitive (45.2 ± 3.1)"}, {"compound": "COc1cc(O)c(C/C=C(\\C)CCC=C(C)C)c2c1[C@@H]1Oc3cc(O)ccc3[C@@H]1CO2", "note": "[Compound 6, bicolosin C]", "Effect on Michaelis-Menten constant (Km)": "no effect", "Effect on Vmax": "reduced", "Inhibition Mode": "Noncompetitive (9.0 ± 1.4)", "Reversibility of inhibition": "reversible inhibitor"}, {"compound": "CC(C)=CCC/C(C)=C/Cc1c(O)ccc(C(=O)/C=C/c2ccc(O)cc2)c1O", "note": "[Compound 7, xanthoangelol]", "Inhibition Mode": "Noncompetitive (5.5 ± 0.8)"}, {"compound": "COc1c(O)ccc(C2COc3cc(O)cc(O)c3C2=O)c1OC", "note": "(stereo not shown) [Compound 9, parvisoflavanone]", "Inhibition Mode": "Noncompetitive (75.3 ± 5.7)"}]}, {"target": "T1, SARS-CoV PLpro", "assay": "biochemical", "settings": "Ki (inhibition constant)", "values": [{"compound": "CC(C)=CCC[C@@]1(C)C=Cc2c(ccc(C(=O)/C=C/c3ccc(O)cc3)c2O)O1", "note": "(racemic) [Compound 8, (±)-lespeol]", "Ki": "54 µM"}, {"compound": "CC(C)=CCc1cc2c(cc1O)OCC1c3cc(C)c(O)c(CC=C(C)C)c3OC21", "note": "(stereo not shown) [Compound 2, lespebuergine G4]", "Ki": "33.2 µM"}, {"compound": "COc1c(CC=C(C)C)c(O)cc2c1[C@@H]1Oc3c(ccc(O)c3CC=C(C)C)[C@@H]1CO2", "note": "[Compound 3, 1-methoxyerythrabyssin II]", "Ki": "8.6 µM"}, {"compound": "COc1c(CC=C(C)C)c(O)cc2c1[C@@H]1Oc3c(cc(C)c(O)c3CC=C(C)C)[C@@H]1CO2", "note": "[Compound 4, bicolosin A]", "Ki": "45.2 µM"}, {"compound": "COc1cc(O)c(C/C=C(\\C)CCC=C(C)C)c2c1[C@@H]1Oc3cc(O)ccc3[C@@H]1CO2", "note": "[Compound 6, bicolosin C]", "Ki": "9.06 µM and 9 µM"}, {"compound": "CC(C)=CCC/C(C)=C/Cc1c(O)ccc(C(=O)/C=C/c2ccc(O)cc2)c1O", "note": "[Compound 7, xanthoangelol]", "Ki": "5.5 µM"}, {"compound": "COc1c(O)ccc(C2COc3cc(O)cc(O)c3C2=O)c1OC", "note": "(stereo not shown) [Compound 9, parvisoflavanone]", "Ki": "75.3 µM"}]}]}
